Source: patent US8598175B2, “Heteroarylamide pyrimidone derivatives” (Sanofi, priority 2007, dated 2013)

Legend:
[1] = target: GSK3β (Homo sapiens, UniProt P49841); assay: Inhibitory activity against GSK3β (33P-ATP phosphorylation of prephosphorylated GS1 peptide, two protocols); type: biochemical; conditions: first or second protocol not specified
Protocol: Inhibitory Activity of the Medicament of the Present Invention Against GSK3β
Two different protocols can be used.
In a first protocol: 7.5 μM of prephosphorylated GS1 peptide and 10 μM ATP (containing 300,000 cpm of ^33P-ATP) were incubated in 25 mM Tris-HCl, pH 7.5, 0.6 mM DTT, 6 mM MgCl2, 0.6 mM EGTA, 0.05 mg/ml BSA buffer for 1 hour at room temperature in the presence of GSK3beta (total reaction volume: 100 microliters).
In a second protocol: 4.1 μM of prephosphorylated GS1 peptide and 42 μM ATP (containing 260,000 cpm ^33P-ATP) were incubated in 80 mM Mes-NaOH, pH 6.5, 1 mM Mg acetate, 0.5 mM EGTA, 5 mM 2-mercaptoethanol, 0.02% Tween 20, 10% glycerol buffer for 2 hours at room temperature in the presence of GSK3beta.
Inhibitors were solubilized in DMSO (final solvent concentration in the reaction medium, 1%).
The reaction was stopped with 100 microliters of a solution made of 25 g polyphosphoric acid (85% P2O5), 126 ml 85% H3PO4, […] to 500 ml and then diluted to 1:100 before use. An aliquot of the reaction mixture was then transferred to Whatman P81 cation exchange filters and rinsed with the solution described above. Incorporated ^33P radioactivity was determined by liquid scintillation spectrometry.
The phosphorylated GS-1 peptide had the following sequence: NH2-[…](P)EDEE-COOH. SEQ ID NO: 1 (Woodgett, J. R. (1989) Analytical Biochemistry 180, 237-241.

GSK3β, sequence (P49841 whole entry): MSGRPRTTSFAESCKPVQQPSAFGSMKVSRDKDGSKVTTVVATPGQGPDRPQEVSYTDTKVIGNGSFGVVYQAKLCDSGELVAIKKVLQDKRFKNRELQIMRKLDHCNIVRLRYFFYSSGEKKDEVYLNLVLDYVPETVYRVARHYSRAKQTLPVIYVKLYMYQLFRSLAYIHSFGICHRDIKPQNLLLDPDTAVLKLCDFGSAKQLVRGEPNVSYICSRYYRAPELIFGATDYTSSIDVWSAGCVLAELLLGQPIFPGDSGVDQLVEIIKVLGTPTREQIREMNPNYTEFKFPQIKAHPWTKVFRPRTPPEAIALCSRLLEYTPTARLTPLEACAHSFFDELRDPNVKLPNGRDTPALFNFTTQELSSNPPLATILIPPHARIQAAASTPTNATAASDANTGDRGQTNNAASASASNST

melting point: 317 to 319 °C | IC50 [1]: 5 nM
Structure (SMILES): Cn1c(CNC(=O)c2ccc3ncccc3n2)nc(-c2ccncn2)cc1=O [compound 4, [1,5]Naphthyridine-2-carboxylic acid (1-methyl-6-oxo-1,6-dihydro-[4,4]bipyrimidinyl-2-ylmethyl)-amide]
